According to ChEMBL document CHEMBL1201862, “PubChem BioAssay data set” (2004):
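Grown in 96-well plates, cells were treated for 48 hours with each compound at five concentrations. Insufficient inhibition: endpoint recorded as highest concentration tested. Abbreviation: GI50, concentration required for 50% inhibition of growth.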 The source made the active and inactive calls. Rule as the data show it: active = GI50 up to about 1.1 µM and inactive = higher.

Experiments:
Assay in all cases: NCI-60 cell line screen, 48 h
[1] = test system: ACHN
[2] = test system: COLO 205
[3] = test system: HCT-116
[4] = test system: HL-60
[5] = test system: HOP-92
[6] = test system: Hs-578T
[7] = test system: K562
[8] = test system: KM12
[9] = test system: LOX IMVI
[10] = test system: M14
[11] = test system: MDA-MB-231
[12] = test system: NCI-H23
[13] = test system: OVCAR-3
[14] = test system: OVCAR-5
[15] = test system: OVCAR-8
[16] = test system: SF-295
[17] = test system: SF-539
[18] = test system: SK-MEL-28
[19] = test system: SK-MEL-5
[20] = test system: SW-620

Row | Compound | GI50 [1] | GI50 [2] | GI50 [3] | GI50 [4] | GI50 [5] | GI50 [6] | GI50 [7] | GI50 [8] | GI50 [9] | GI50 [10] | GI50 [11] | GI50 [12] | GI50 [13] | GI50 [14] | GI50 [15] | GI50 [16] | GI50 [17] | GI50 [18] | GI50 [19] | GI50 [20]
1 | Cc1cc(C)n(-c2nc(-n3nc(C)cc3C)nc(-n3nc(C)cc3C)n2)n1 | 38.6 µM (inactive) | > 100 µM (inactive) | > 100 µM (inactive) | > 100 µM (inactive) | > 100 µM (inactive) | 50.5 µM (inactive) | 59.2 µM (inactive) | > 100 µM (inactive) | > 100 µM (inactive) | > 100 µM (inactive) | > 100 µM (inactive) | 88.7 µM (inactive) | > 100 µM (inactive) | > 100 µM (inactive) | 68.9 µM (inactive) | > 100 µM (inactive) | > 100 µM (inactive) | > 100 µM (inactive) | > 100 µM (inactive) | > 100 µM (inactive)
2 | Cc1cc(C)n(C2=NS(=O)(=O)c3ccccc3N2C)n1 | > 100 µM (inactive) | > 100 µM (inactive) | > 100 µM (inactive) | > 100 µM (inactive) | > 100 µM (inactive) | > 100 µM (inactive) | > 100 µM (inactive) | > 100 µM (inactive) | > 100 µM (inactive) | > 100 µM (inactive) | > 100 µM (inactive) | > 100 µM (inactive) | > 100 µM (inactive) | > 100 µM (inactive) | > 100 µM (inactive) | > 100 µM (inactive) | > 100 µM (inactive) | > 100 µM (inactive) | > 100 µM (inactive) | > 100 µM (inactive)
3 | Cc1ccc(-c2cc(-c3ccc(Cl)cc3)nc(/N=C3\C(=O)N(CN4CCCCC4)c4ccc(Cl)cc43)n2)cc1 | 29.6 µM (inactive) | 25.2 µM (inactive) | 23.1 µM (inactive) | 16 µM (inactive) | 15.6 µM (inactive) | 18.9 µM (inactive) | 19.9 µM (inactive) | 15.8 µM (inactive) | 23.3 µM (inactive) | 15.6 µM (inactive) | 36.2 µM (inactive) | 19.1 µM (inactive) | 35.5 µM (inactive) | 38.2 µM (inactive) | 18.5 µM (inactive) | 42.2 µM (inactive) | 24.5 µM (inactive) | 64.1 µM (inactive) | 19.8 µM (inactive) | 24.3 µM (inactive)
4 | C[C@@H]1O[C@@H](O[C@H]2CC[C@]3(C=O)[C@H]4CC[C@]5(C)[C@@H](c6ccc(=O)oc6)CC[C@]5(O)[C@@H]4CC[C@]3(O)C2)[C@H](O)[C@H](O)[C@H]1O[C@@H]1O[C@H](CO)[C@@H](O)[C@H](O)[C@H]1O [HELLEBRIN] | 0.00423 µM (active) | 0.0271 µM (active) | 0.00805 µM (active) | 0.00615 µM (active) | 0.0402 µM (active) | 0.00653 µM (active) | 0.0218 µM (active) | 0.0521 µM (active) | 0.0166 µM (active) | 0.021 µM (active) | 0.0379 µM (active) | 0.00314 µM (active) | 0.00408 µM (active) | 0.00989 µM (active) | 0.0126 µM (active) | 0.0112 µM (active) | 0.00811 µM (active) | 0.0375 µM (active) | 0.00841 µM (active) | 0.0375 µM (active)
5 | CCN1CCC(O)(/C=C/c2ccc(Cl)c(Cl)c2)C(C(=O)/C=C/c2ccc(Cl)c(Cl)c2)C1 (stereo not given) | 1.06 µM (active) | 0.705 µM (active) | 0.514 µM (active) | 0.246 µM (active) | 0.621 µM (active) | 0.271 µM (active) | 0.324 µM (active) | 0.713 µM (active) | 0.794 µM (active) | 0.733 µM (active) | 0.635 µM (active) | 0.255 µM (active) | 0.764 µM (active) | 1.12 µM (inactive) | 0.745 µM (active) | 0.713 µM (active) | 1.95 µM (inactive) | 0.881 µM (active) | 0.834 µM (active) | 0.466 µM (active)
